A short description of experiment [1]: Selectivity ratio of IC50 for human ETA receptor stably expressed in CHO cells Membrane to IC50 human ETB receptor stably expressed in CHO cells Membrane. Conditions: condition cardiovascular disease; condition vascular disease.
The target in experiment [2] is T1, Endothelin receptor type B (Homo sapiens, UniProt P24530).
T1 sequence (P24530 whole entry): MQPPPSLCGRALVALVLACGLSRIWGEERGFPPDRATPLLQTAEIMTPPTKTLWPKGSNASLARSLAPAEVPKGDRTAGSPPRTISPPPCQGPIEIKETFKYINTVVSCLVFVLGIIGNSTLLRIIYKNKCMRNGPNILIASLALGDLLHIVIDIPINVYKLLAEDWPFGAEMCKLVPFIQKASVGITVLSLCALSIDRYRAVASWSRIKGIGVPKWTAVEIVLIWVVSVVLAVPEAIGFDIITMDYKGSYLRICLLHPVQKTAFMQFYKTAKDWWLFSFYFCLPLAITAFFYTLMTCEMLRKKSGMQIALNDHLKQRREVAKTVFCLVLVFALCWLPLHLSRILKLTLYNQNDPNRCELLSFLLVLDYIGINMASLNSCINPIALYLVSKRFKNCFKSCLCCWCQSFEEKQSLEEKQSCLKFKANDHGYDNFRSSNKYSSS
Briefly: Binding affinity to ETB receptor (unknown origin) assessed as inhibition constant.

For experiment [3], the target named is T2, Endothelin-1 receptor (Homo sapiens, UniProt P25101).
T2 sequence (P25101 whole entry): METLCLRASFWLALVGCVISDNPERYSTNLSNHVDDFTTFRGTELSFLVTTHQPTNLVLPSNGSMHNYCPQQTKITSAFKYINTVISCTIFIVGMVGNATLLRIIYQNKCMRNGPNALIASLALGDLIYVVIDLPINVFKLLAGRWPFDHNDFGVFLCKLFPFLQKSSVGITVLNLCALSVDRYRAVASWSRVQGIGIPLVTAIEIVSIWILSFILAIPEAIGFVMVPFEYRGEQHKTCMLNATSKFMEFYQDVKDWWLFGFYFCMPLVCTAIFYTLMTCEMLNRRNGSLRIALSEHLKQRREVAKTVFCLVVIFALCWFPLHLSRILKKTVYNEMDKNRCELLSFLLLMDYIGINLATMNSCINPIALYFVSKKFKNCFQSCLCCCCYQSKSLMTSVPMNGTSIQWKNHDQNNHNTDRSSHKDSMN
Briefly: Binding affinity to ETA receptor (unknown origin) assessed as inhibition constant.

Experiment [4] is described as follows: Displacement of [125I]ET-1 from human ETB receptor expressed in green monkey COS7 cells Membrane assessed as inhibition constant incubated for 16 to 18 hrs by gamma counter analysis. In kind it is cell membranes. (Loss of bound radioactivity is the signal in a displacement assay; it reports binding, not function.)
The target in experiment [5] is T2, Endothelin-1 receptor. Put plainly: Displacement of [125I]endhothelin-1 from human ETA receptor stably expressed in CHO cells Membrane assessed as inhibition constant at 25 degC incubated for 4 hrs by saturation binding assay. It is filed as cell membranes.
Experiment [6] concerns the target T1, Endothelin receptor type B. Briefly: Displacement of [125I]endhothelin-3 from human ETB receptor stably expressed in CHO cells Membrane assessed as inhibition constant at 25 degC incubated for 4 hrs by saturation binding assay. In kind it is cell membranes.
In experiment [7] the target is Endothelin receptor type B (Oryctolagus cuniculus, UniProt Q9N0W7). Briefly: Agonist activity to ETB receptor in rabbit pulmonary artery assessed as induction of vessel ring contraction. It is filed as functional, tissue-based.
Sequence of Endothelin receptor type B (Oryctolagus cuniculus, UniProt Q9N0W7) (Q9N0W7 whole entry): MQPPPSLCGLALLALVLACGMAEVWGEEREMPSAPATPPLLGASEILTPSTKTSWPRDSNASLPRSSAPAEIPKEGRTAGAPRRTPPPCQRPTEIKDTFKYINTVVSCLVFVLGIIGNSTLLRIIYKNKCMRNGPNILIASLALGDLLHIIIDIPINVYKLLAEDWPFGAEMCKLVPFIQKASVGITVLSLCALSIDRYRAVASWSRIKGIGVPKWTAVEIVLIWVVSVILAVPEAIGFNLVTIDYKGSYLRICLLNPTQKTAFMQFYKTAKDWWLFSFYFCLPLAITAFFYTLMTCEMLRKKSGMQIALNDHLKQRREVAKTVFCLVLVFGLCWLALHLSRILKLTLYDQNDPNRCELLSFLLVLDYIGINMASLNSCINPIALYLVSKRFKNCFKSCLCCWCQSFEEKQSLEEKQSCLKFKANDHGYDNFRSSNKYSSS

The source of these data is ChEMBL document CHEMBL5678795 (Eur J Pharmacol, 1999).

Peptide text beside a SMILES is read from it.

Usually Ki stands for a measure of affinity in units of concentration, obtained from inhibition or displacement. The EC50 is the concentration needed to bring the measured effect to its halfway point.

Consider `COc1ccccc1Oc1c(NS(=O)(=O)c2ccc(C)cn2)nc(-c2ccnc(-c3nnn[nH]3)c2)nc1OCCO` [CLAZOSENTAN], for which, in experiment [1], the “Ratio IC50” value was greater than 1000. Besides, in experiment [2], the Ki was greater than 130 nM. Consider `CCCOc1ccc2c(c1)[C@@H](c1ccc(OC)cc1OCC(=O)O)[C@H](C(=O)O)[C@H]2c1ccc2c(c1)OCO2` [SB-209670], for which, in experiment [1], the “Ratio IC50” value was determined as 90.

For the molecule `CC(C)C[C@@H]1NC(=O)[C@@H](c2cccs2)NC(=O)[C@H](CC(=O)O)NC(=O)[C@H](CC(=O)N2CCN(c3ccccc3)CC2)NC(=O)[C@@H](CC(=O)O)NC(=O)[C@@H](Cc2c[nH]c3ccccc23)NC1=O` (HELM PEPTIDE1{D.D.[O=C([C@H](N[*:1])c1cccs1)[*:2]].L.[dW].[dD]}|CHEM1{[c1ccc(N2CCN([*:1])CC2)cc1]}$PEPTIDE1,CHEM1,1:R3-1:R1|PEPTIDE1,PEPTIDE1,1:R1-6:R2$$$V2.0) [listing 1 of 2 here], the values for the Ki (at Endothelin-1 receptor [3]; in experiment [2]) were 1.3 nM and 590 nM, respectively. On to `CC(C)C[C@@H]1NC(=O)[C@@H](c2cccs2)NC(=O)[C@H](CC(=O)O)NC(=O)[C@H](CC(=O)N2CCN(c3ccccc3)CC2)NC(=O)[C@@H](CC(=O)O)NC(=O)[C@@H](Cc2c[nH]c3ccccc23)NC1=O` (HELM PEPTIDE1{D.D.[O=C([C@H](N[*:1])c1cccs1)[*:2]].L.[dW].[dD]}|CHEM1{[c1ccc(N2CCN([*:1])CC2)cc1]}$PEPTIDE1,CHEM1,1:R3-1:R1|PEPTIDE1,PEPTIDE1,1:R1-6:R2$$$V2.0) [listing 2 of 2 here], for which the “Ratio IC50” value in experiment [1] stood at 454.

`Cc1cc2c(cc1CC(=O)c1sccc1S(=O)(=O)Nc1onc(C)c1Cl)OCO2` [SITAXENTAN]: the “Ratio IC50” value in experiment [1] is greater than 10000. For the same molecule, the Ki in experiment [4] is greater than 4300 nM. For `CCCc1cc(C(=O)O)ccc1OC(C(=O)NS(=O)(=O)c1ccc(C(C)C)cc1)c1ccc2c(c1)OCO2` [L-754142], the Ki was 33.6 nM on Endothelin-1 receptor [5] and 1420 nM in experiment [6]. For the same molecule, the “Ratio IC50” value in experiment [1] turned out to be 42.

Consider `CCCOc1ccc2c(c1)[C@@H](c1ccc(OC)cc1OCCO)[C@H](C(=O)O)[C@H]2c1ccc2c(c1)OCO2`, for which, in experiment [1], the “Ratio IC50” value is 1000. As for `COc1cc(OC)nc(O[C@@H](C(=O)O)C(OC)(c2ccccc2)c2ccccc2)n1`, the “Ratio IC50” value in experiment [1] was found to be 160. Moreover, the Ki at Endothelin-1 receptor [3] is 6 nM; in experiment [2], 960 nM. As for `CC(C)C[C@H](NC(=O)N1CCCCCC1)C(=O)N[C@H](Cc1cn(C)c2ccccc12)C(=O)N[C@H](Cc1ccccn1)C(=O)O`, the Ki in experiment [2] amounted to 7300 nM. For `CC[C@H](C)[C@H](NC(=O)[C@@H](NC(=O)[C@H](CC(=O)O)NC(=O)[C@H](CCC(N)=O)NC(=O)[C@H](Cc1cnc[nH]1)NC(=O)[C@@H]1CSSC[C@H](N)C(=O)N[C@@H]([C@@H](C)O)C(=O)N[C@H]2CSSC[C@H](NC(=O)[C@H](CCC(=O)O)NC(=O)[C@H](CCC(=O)O)NC(=O)[C@H](CC(=O)O)NC(=O)[C@H]([C@@H](C)O)NC(=O)[C@H](CCSC)NC(=O)[C@H](CC(=O)O)NC(=O)[C@H](CC(N)=O)NC2=O)C(=O)N[C@@H](CC(C)C)C(=O)N[C@@H](CC(N)=O)C(=O)N[C@@H](Cc2ccccc2)C(=O)N1)C(C)C)C(=O)N[C@@H](Cc1c[nH]c2ccccc12)C(=O)O`, the EC50 in experiment [7] was determined as 1.57 nM.
